From patent publication US20220202882A1, “EFFECT OF COMBINATION OF BIFIDOBACTERIUM AND BERBERINE ON PRE-DIABETES AND TYPE 2 DIABETES” (The Fourth Military Medical University, priority 2018, published 2022)
Structures can show the parent of a compound that is named as a salt.

Columns and labels:
[1] = test system: pre-diabetic and type 2 diabetes mellitus patients; experiment: Clinical trial: venous plasma glucose at 2 hours post OGTT (2-h PPG); format: in vivo, human; conditions: for Effect on 2 h-PPG (in words) / Post-treatment 2-h PPG - pre-treatment 2-h PPG, mean value / Post-treatment 2-h PPG <10.0 mmol/L, Yes-N (%): 16 weeks of treatment; for Effect on 2 h-PPG (in words): Kruskal-Wilcox test; for Post-treatment 2-h PPG, mean value: after 16 weeks of treatment; for Pre-treatment 2-h PPG, mean value: baseline before treatment
Procedure: (§1) From June 2015 to October 2018, a double-blind, randomized, and parallel-controlled trial, studying the effects of the combined use of Bifidobacterium and berberine on pre-diabetic and type 2 diabetes mellitus patients, was conducted in 10 research centers in Xi'an, Yan'an and Shangluo of Shaanxi province, etc., including the First Affiliated Hospital of the Fourth Military Medical University. The trial included an enrollment stage of 2 weeks and a treatment stage of 16 weeks. After passing the first visit 1 (see V1 in Table 1), the subjects entered the enrollment stage, i.e., 2 weeks of lifestyle intervention, followed by a re-screening (see V2 in Table 1). The subjects were subjected to a 16-week course of treatment after passing the screening. See Table 1 for the detailed screening parameters. After the enrollment stage, the baseline data of the 300 successfully enrolled subjects were collected. Meanwhile, the subjects started to receive lifestyle guidance, and were randomly divided into four groups for 16 weeks of treatments. 1) Bifidobacterium group: the subjects were administered with Bifidobacterium capsules (Livzon Pharmaceutical Group Inc., batch no.: 20141013), 0.35 g/capsule, each capsule containing 50,000,000 viable bacteria (Bifidobacterium adolescentis DM8504), 2 capsules/time, 2 times/day, plus berberine placebo tablets (Northeast Pharma Group Shenyang First Pharma Co., Ltd., Lot no.: 20150101, containing 80.2% microcrystalline cellulose, 9.4% pregelatinized starch, 6.4% sodium carboxymethyl starch, 1% magnesium stearate, and 3% copovidone), 0.1 g/tablet, 5 tablets/time, 2 times/day. 2) Berberine group: the subjects were administered with berberine tablets (Northeast Pharma Group Shenyang First Pharma Co., Ltd., Lot no.: 130917, each tablet weighted 0.165 g and contained 0.1 g active berberine ingredient (berberine hydrochloride), with the same excipients as the placebo tablets), 5 tablets/time, 2 times/day, plus Bifidobacterium placebo capsules (Livzon Pharmaceutical Group Inc., Lot no.: 141001, specifically containing 0.348 g spray-dried lactose, and 0.002 g magnesium stearate), 0.35 g/capsule, 2 capsules/time, 2 times/day. 3) Combination Group: the subjects were administered with Bifidobacterium capsules, 0.35 g/capsule, each capsule containing 50,000,000 viable bacteria (B. adolescentis DM8504), 2 capsules/time, 2 times/day, plus berberine tablets, 0.1 g/tablet, each tablet containing 0.1 g active berberine ingredient (berberine hydrochloride), 5 tablets/time, 2 times/day. 4) Control group: the subjects were administered with Bifidobacteria placebo capsules, 0.35 g/capsule, 2 capsules/time, 2 times/day, plus berberine placebo tablets, 0.1 g/tablet, 5 tablets/time, 2 times/day. Bifidobacterium capsules were taken after meals and berberine tablets were taken before meals. Before the oral glucose tolerance test (OGTT), the subjects took regular diets for at least 3 days, with carbohydrates no less than 150 g. After 10-12 h fasting, initial blood samples were collected after the subjects emptied their bladders. Then the subjects drank a sugar solution made by dissolving 75 g anhydrous glucoses in 300 ml water over about 5 min, and were collected for blood samples after 30 min and 2 h. […]

[2] = test system: pre-diabetic and type 2 diabetes mellitus patients; experiment: Clinical trial: blood lipids (total cholesterol, HDL, LDL); format: in vivo, human; conditions: for Effect on total cholesterol level (in words) / High-density lipoprotein change, mean value / Post-treatment low-density lipoprotein - pre-treatment low-density lipoprotein, mean value / Post-treatment total cholesterol - pre-treatment total cholesterol, mean value: 16 weeks of treatment; for Effect on total cholesterol level (in words): Kruskal-Wilcox test; for Post-treatment low-density lipoprotein, mean value / Post-treatment total cholesterol, mean value: after 16 weeks of treatment; for Pre-treatment low-density lipoprotein, mean value / Pre-treatment total cholesterol, mean value: baseline before treatment
Procedure: as §1, with “Tests of all samples in” for “Before”, “study were carried out in a designated laboratory with standardized criteria. Blood analysis covered hundreds of indicators including insulin, amino acids, cytokines etc. After the sample testing was finished, 1) Chi-Squared test and t-test were used to evaluate the intergroup balance of the baseline data including the demographic characteristics and pre-treatment indicators, wherein the baseline data referred to those collected at the second visit, before the formal administration, the data collected at the first visit on the enrollment stage were used instead if the data at the second visit was lacking; 2) two-way disordered CM-CH11, Kruska-Wilcox test, etc. were used for analysis and intergroup comparison of pre- and post-treatment indicators such as fasting plasma” for “oral”, “(FPG), HbA1c, plasma glucose at 2 hours post OGTT (2-h PPG), blood pressure, blood lipids, body weight and BMI; 3) adverse events and hypoglycemia events were described in terms of” for “tolerance test (OGTT),”, “type, frequency and relevance with the drugs,” for “subjects took regular diets”, “safety evaluation. Software SAS 9.1.3 was used for statistical analysis” for “at least 3 days,”, “all analysis processes being programmed.” for “carbohydrates no less than 150 g. After 10-12 h fasting, initial blood samples were collected after the subjects emptied their bladders. Then the subjects drank a sugar solution made by dissolving 75 g anhydrous glucoses in 300 ml water over about 5 min, and were collected for blood samples after 30 min and 2 h.”

Row | Compound | Effect on 2 h-PPG (in words) [1] | Post-treatment 2-h PPG - pre-treatment 2-h PPG, mean value ([1]; FAS) | Post-treatment 2-h PPG <10.0 mmol/L, Yes-N (%) ([1]; FAS) | Post-treatment 2-h PPG, mean value ([1]; FAS) | Pre-treatment 2-h PPG, mean value ([1]; FAS) | Post-treatment 2-h PPG <10.0 mmol/L, Yes-N (%) ([1]; PPS) | Effect on total cholesterol level (in words) [2] | High-density lipoprotein change, mean value ([2]; FAS) | Post-treatment low-density lipoprotein - pre-treatment low-density lipoprotein, mean value ([2]; FAS) | Post-treatment total cholesterol - pre-treatment total cholesterol, mean value ([2]; FAS) | Post-treatment low-density lipoprotein, mean value ([2]; FAS) | Post-treatment total cholesterol, mean value ([2]; FAS) | Pre-treatment low-density lipoprotein, mean value ([2]; FAS) | Pre-treatment total cholesterol, mean value ([2]; FAS) | High-density lipoprotein change, mean value ([2]; PPS)
1 | COc1ccc2cc3[n+](cc2c1OC)CCc1cc2c(cc1-3)OCO2 [Berberine, berberine hydrochloride] | good effect too | -1.1 mmol/L | 35(71.43) N (%) | 9.84 mmol/L | 11.2 mmol/L | 24(64.86) N (%) | significantly reduce the total cholesterol level | 0.00 mmol/L | -0.15 mmol/L | -0.2770 mmol/L | 2.76 mmol/L | 4.6400 mmol/L | 2.99 mmol/L | 5.0200 mmol/L | -0.00 mmol/L
2 | Bifidobacterium | no such effect | -0.246 mmol/L | 45(45.00) N (%) | 11.3 mmol/L | 11.4 mmol/L | 31(37.35) N (%) | did not have evident total cholesterol lowing effect | 0.03 mmol/L | -0.00247 mmol/L | 0.0219 mmol/L | 2.9 mmol/L | 4.8100 mmol/L | 2.85 mmol/L | 4.7600 mmol/L | 0.03 mmol/L
